Target: T1, GAC (Mus musculus, UniProt D3Z7P3)
T1 construct: plasmid (residues 72-603 for GAC, 72-674 for KGA); His-tag with thrombin cleavage site (N, cleaved yes); made in house; host or cells: pET23a vector
T1 sequence (D3Z7P3 72-603 isoform D3Z7P3-2): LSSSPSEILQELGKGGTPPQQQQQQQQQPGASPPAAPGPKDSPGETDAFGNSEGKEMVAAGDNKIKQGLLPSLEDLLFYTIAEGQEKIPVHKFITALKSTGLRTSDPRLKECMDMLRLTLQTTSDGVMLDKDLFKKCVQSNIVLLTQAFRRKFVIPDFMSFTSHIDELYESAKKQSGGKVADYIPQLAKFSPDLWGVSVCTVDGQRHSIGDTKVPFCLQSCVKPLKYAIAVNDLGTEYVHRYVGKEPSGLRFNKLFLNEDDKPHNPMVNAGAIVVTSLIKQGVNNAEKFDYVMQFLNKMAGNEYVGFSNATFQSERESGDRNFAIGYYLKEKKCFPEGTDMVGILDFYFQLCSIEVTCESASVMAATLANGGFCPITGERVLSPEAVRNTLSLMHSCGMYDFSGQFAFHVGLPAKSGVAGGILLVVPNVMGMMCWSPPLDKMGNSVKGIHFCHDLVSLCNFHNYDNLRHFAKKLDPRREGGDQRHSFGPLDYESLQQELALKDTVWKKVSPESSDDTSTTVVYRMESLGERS
Assay: FRET assay of GAC tetramer formation (488-GAC donor, QSY 9-GAC acceptor)
Format: binding
Details: for effect on 488-GAC fluorescence emission in equilibrated 488-GAC/QSY 9-GAC mixture: 20 nM 488-GAC and 200 nM QSY 9-GAC
Text: A mouse kidney type glutaminase isoform 1 (KGA, NP_001074550.1, which is hereby incorporated by reference in its entirety (SEQ ID NO:7)) and isoform 2 (GAC, NP_001106854.1, which is hereby incorporated by reference in its entirety (SEQ ID NO:3)) plasmid (residues 72-603 for GAC, 72-674 for KGA) was cloned into a pET23a vector containing an N-terminal histidine (His)-tag and thrombin cleavage site. The expressed protein was initially purified using Co^2+ affinity beads (Clontech), after which the His-tag was cleaved with human thrombin (Haemetologic Technologies) overnight at 4° C. and subsequently purified by anion exchange (GE healthcare) and gel filtration chromatography. Purified GAC or KGA was stored in a high salt containing buffer (20 mM Tris-HCl pH 8.5, 500 mM NaCl, 1 mM NaN3) and stored at −80° C. following snap freezing in liquid N2 for long term use. For labeling recombinant GAC or KGA with small molecule probes, 1.5 mg of enzyme was exchanged to 50 mM HEPES pH 7.2, 100 mM NaCl using a PD10 desalting column (GE healthcare) and incubated with 50 μM (5-fold excess of enzyme) of either ALEXA FLUOR® 488 succinimidyl ester or QSY® 9 succinimidyl ester (Molecular Probes) for 1 hr at 4° C. After 1 hr, the labeling reaction was quenched with 150 mM Tris-HCl pH 8.5 and unreacted probe was separated from labeled-enzyme using a PD10 desalting column eluting labeled-GAC back into the high salt containing buffer.
Fluorescence experiments were performed using a Varian Carry Eclipse Fluorometer in the counting mode. Excitation and emission wavelengths were 490 and 520 nm, respectively. Experiments were all prepared as one-mL samples and stirred continuously at 20° C. in 50 mM Tris-Acetate pH 8.5, 0.1 mM ethylenediaminetetraacetic acid (EDTA). For WT GAC titrations in the absence of inorganic phosphate, 10 nM 488-GAC was equilibrated followed by injection of 25 μL of the appropriate concentration of QSY® 9-GAC and was allowed to equilibrate for 10 minutes at which point 75 μL of the appropriate concentration of unlabeled WT GAC was added to give a concentration that was ten-times that of labeled-GAC (i.e., 10-fold excess). For FRET experiments prepared for inorganic phosphate titrations, a similar protocol was followed whereby 10 nM of 488-GAC was equilibrated with 400 nM QSY® 9-GAC followed by injection of 100 μL of the appropriate concentration of K2HPO4 prepared in 50 mM Tris-Acetate (pH=8.5) 0.1 mM EDTA buffer. To test whether purified mutants can form oligomers with WT GAC, 200 nM QSY® 9-D391K-GAC or 200 nM QSY® 9-K316E-D391K-R459E was added to an equilibrated sample of 20 nM 488-WT GAC. Likewise, when assaying the effects of BPTES and 968 on oligomer formation, BPTES or 968 (10 μM or 25 μM, respectively) was added following equilibration of a sample of 200 nM of QSY® 9-WT GAC and 20 nM 488-WT GAC. Both BPTES and 968 were prepared in DMSO, and appropriate dilutions were made so that less than 2% (v/v) DMSO was added to an experimental sample.

SMILES | effect on 488-GAC fluorescence emission in equilibrated 488-GAC/QSY 9-GAC mixture (25 μM 968) | effect on 488-GAC fluorescence emission in equilibrated 488-GAC/QSY 9-GAC mixture (10 μM BPTES) | reversal of induced tetramers/quenching by excess unlabeled GAC (10 μM BPTES, 10-fold excess unlabeled GAC)
CN(C)c1ccc(C2Nc3ccc4ccccc4c3C3=C2C(=O)CC(C)(C)C3)cc1Br (stereo not drawn) [compound 968] | significant change in the fluorescence emission | – | –
O=C(Cc1ccccc1)Nc1nnc(CCSCCc2nnc(NC(=O)Cc3ccccc3)s2)s1 [BPTES] | – | immediate quenching | stable and not disrupted

Reference: patent publication US11046945B2, “Labeled glutaminase proteins, isolated glutaminase protein mutants, methods of use, and kit” (CORNELL UNIVERSITY, priority 2013, dated 2021)
